Results: ChEMBL document CHEMBL1201862, “PubChem BioAssay data set” (2004)
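Following 48 hours of exposure in 96-well plates, responses at five concentrations were used to interpolate endpoints linearly. Here, GI50 denotes the concentration required for 50% inhibition of growth.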 The source made the active and inactive calls. No stated cut-off is given here; in the data, active = GI50 up to about 1.1 µM and inactive = higher.

Legend:
Experiment in all cases: inhibition of tumour cell growth, NCI panel, 48 h
A549 = tested on: A549
EKVX = tested on: EKVX
786-0 = tested on: 786-0
OVCAR-4 = tested on: OVCAR-4
UACC-257 = tested on: UACC-257
IGROV-1 = tested on: IGROV-1
HCT-15 = tested on: HCT-15
SK-OV-3 = tested on: SK-OV-3
SW-620 = tested on: SW-620
SK-MEL-28 = tested on: SK-MEL-28
TK-10 = tested on: TK-10
SF-268 = tested on: SF-268
ACHN = tested on: ACHN
UACC-62 = tested on: UACC-62
MOLT-4 = tested on: MOLT-4
RPMI-8226 = tested on: RPMI-8226
SF-295 = tested on: SF-295
Hs-578T = tested on: Hs-578T
LOX IMVI = tested on: LOX IMVI
PC-3 = tested on: PC-3
DU-145 = tested on: DU-145
RXF 393 = tested on: RXF 393
OVCAR-3 = tested on: OVCAR-3
NCI-H23 = tested on: NCI-H23
COLO 205 = tested on: COLO 205
CCRF-CEM = tested on: CCRF-CEM
KM12 = tested on: KM12
SK-MEL-2 = tested on: SK-MEL-2
U-251 = tested on: U-251
SNB-19 = tested on: SNB-19
SN12C = tested on: SN12C
HCT-116 = tested on: HCT-116
Malme-3M = tested on: Malme-3M
NCI/ADR-RES = tested on: NCI/ADR-RES
M14 = tested on: M14
HOP-62 = tested on: HOP-62
MDA-MB-231 = tested on: MDA-MB-231
MDA-N = tested on: MDA-N
SNB-75 = tested on: SNB-75
HL-60 = tested on: HL-60
OVCAR-5 = tested on: OVCAR-5
HCC 2998 = tested on: HCC 2998
T47D = tested on: T47D
CAKI-1 = tested on: CAKI-1
SF-539 = tested on: SF-539
A498 = tested on: A498
NCI-H226 = tested on: NCI-H226
MCF7 = tested on: MCF7
OVCAR-8 = tested on: OVCAR-8
SK-MEL-5 = tested on: SK-MEL-5
MDA-MB-435 = tested on: MDA-MB-435
UO-31 = tested on: UO-31
BT-549 = tested on: BT-549
HOP-92 = tested on: HOP-92
HT-29 = tested on: HT-29
NCI-H460 = tested on: NCI-H460
K562 = tested on: K562
NCI-H522 = tested on: NCI-H522
SR = tested on: SR

## CC[C@H](C)[C@H](NC(=O)N(CCC#N)CCN(CCN(C(=O)N[C@@H](Cc1ccccc1)C(=O)OC)c1ccccc1)C(=O)N[C@H](C(=O)OC)C(C)C)C(=O)OC
A549
  GI50: 32.7 µM (inactive)
EKVX
  GI50: 29.7 µM (inactive)
786-0
  GI50: 4.68 µM (inactive)
OVCAR-4
  GI50: 22.4 µM (inactive)
UACC-257
  GI50: 13.5 µM (inactive)
IGROV-1
  GI50: 19.1 µM (inactive)
HCT-15
  GI50: 21.8 µM
SK-OV-3
  GI50: 20.9 µM (inactive)
SW-620
  GI50: 21.4 µM (inactive)
SK-MEL-28
  GI50: 15 µM (inactive)
TK-10
  GI50: 18.3 µM (inactive)
SF-268
  GI50: 21.5 µM (inactive)
ACHN
  GI50: 13.8 µM (inactive)
UACC-62
  GI50: 11.5 µM (inactive)
MOLT-4
  GI50: 4.57 µM (inactive)
RPMI-8226
  GI50: 10.7 µM (inactive)
SF-295
  GI50: 18.1 µM (inactive)
Hs-578T
  GI50: 23.7 µM (inactive)
LOX IMVI
  GI50: 20.7 µM (inactive)
PC-3
  GI50: 16.1 µM (inactive)
DU-145
  GI50: 20 µM (inactive)
RXF 393
  GI50: 14.2 µM (inactive)
OVCAR-3
  GI50: 17.4 µM (inactive)
NCI-H23
  GI50: 19.9 µM (inactive)
COLO 205
  GI50: 24.2 µM (inactive)
CCRF-CEM
  GI50: 22.8 µM (inactive)
KM12
  GI50: 20.9 µM (inactive)
SK-MEL-2
  GI50: 20 µM (inactive)
U-251
  GI50: 16.2 µM (inactive)
SNB-19
  GI50: 15.2 µM (inactive)
SN12C
  GI50: 25.6 µM (inactive)
HCT-116
  GI50: 19.2 µM (inactive)
Malme-3M
  GI50: 17.2 µM (inactive)
NCI/ADR-RES
  GI50: 23.6 µM (inactive)
M14
  GI50: 20.5 µM (inactive)
HOP-62
  GI50: 20.5 µM (inactive)
MDA-MB-231
  GI50: 18 µM (inactive)
MDA-N
  GI50: 16.5 µM (inactive)
SNB-75
  GI50: 19.9 µM (inactive)
HL-60
  GI50: 0.879 µM (active)
OVCAR-5
  GI50: 25 µM (inactive)
HCC 2998
  GI50: 19 µM (inactive)
T47D
  GI50: 14.3 µM (inactive)
CAKI-1
  GI50: 19.8 µM (inactive)
SF-539
  GI50: 23.6 µM (inactive)
A498
  GI50: 19.6 µM (inactive)
NCI-H226
  GI50: 21.5 µM (inactive)
MCF7
  GI50: 27.5 µM (inactive)
OVCAR-8
  GI50: 22.6 µM (inactive)
SK-MEL-5
  GI50: 20.5 µM (inactive)
MDA-MB-435
  GI50: 16.6 µM (inactive)
UO-31
  GI50: 18.1 µM (inactive)
BT-549
  GI50: 22.9 µM (inactive)
HOP-92
  GI50: 6.24 µM (inactive)

## O=c1oc2ccc3ccccc3c2cc1-c1cn2ccsc2n1
A549
  GI50: 49.9 µM (inactive)
EKVX
  GI50: 16.1 µM (inactive)
786-0
  GI50: 17.9 µM (inactive)
OVCAR-4
  GI50: 19.6 µM (inactive)
UACC-257
  GI50: 24.8 µM (inactive)
IGROV-1
  GI50: 0.646 µM (active)
HCT-15
  GI50: 16 µM
SK-OV-3
  GI50: > 100 µM (inactive)
SW-620
  GI50: 16.8 µM (inactive)
SK-MEL-28
  GI50: 26 µM (inactive)
TK-10
  GI50: 17.9 µM (inactive)
SF-268
  GI50: 24.8 µM (inactive)
ACHN
  GI50: 16.1 µM (inactive)
UACC-62
  GI50: 16.2 µM (inactive)
MOLT-4
  GI50: 3.41 µM (inactive)
RPMI-8226
  GI50: 11.5 µM (inactive)
SF-295
  GI50: 78.2 µM (inactive)
Hs-578T
  GI50: 45.1 µM (inactive)
LOX IMVI
  GI50: 15.8 µM (inactive)
PC-3
  GI50: 26.7 µM (inactive)
DU-145
  GI50: 19.9 µM (inactive)
RXF 393
  GI50: 17.3 µM (inactive)
OVCAR-3
  GI50: 17.9 µM (inactive)
NCI-H23
  GI50: 25.2 µM (inactive)
COLO 205
  GI50: 16.1 µM (inactive)
CCRF-CEM
  GI50: 3.89 µM (inactive)
KM12
  GI50: 20.6 µM (inactive)
SK-MEL-2
  GI50: > 100 µM (inactive)
U-251
  GI50: 71.9 µM (inactive)
SNB-19
  GI50: > 100 µM (inactive)
SN12C
  GI50: 28.4 µM (inactive)
HCT-116
  GI50: 16 µM (inactive)
Malme-3M
  GI50: 21.2 µM (inactive)
NCI/ADR-RES
  GI50: 29.1 µM (inactive)
M14
  GI50: 24 µM (inactive)
HOP-62
  GI50: 34.5 µM (inactive)
HT-29
  GI50: 18 µM (inactive)
MDA-MB-231
  GI50: 14.1 µM (inactive)
MDA-N
  GI50: 21.4 µM (inactive)
SNB-75
  GI50: > 100 µM (inactive)
NCI-H460
  GI50: 51.5 µM (inactive)
HL-60
  GI50: 17.8 µM (inactive)
OVCAR-5
  GI50: 24.9 µM (inactive)
K562
  GI50: 17.3 µM (inactive)
HCC 2998
  GI50: 16.7 µM (inactive)
NCI-H522
  GI50: 17.1 µM (inactive)
T47D
  GI50: 13 µM (inactive)
CAKI-1
  GI50: 23.8 µM (inactive)
SR
  GI50: 9.27 µM (inactive)
SF-539
  GI50: 20.7 µM (inactive)
MCF7
  GI50: 3.03 µM (inactive)
OVCAR-8
  GI50: 19.2 µM (inactive)
SK-MEL-5
  GI50: 15.4 µM (inactive)
MDA-MB-435
  GI50: 22.4 µM (inactive)
UO-31
  GI50: 14.6 µM (inactive)
BT-549
  GI50: 16.8 µM (inactive)
HOP-92
  GI50: 13 µM (inactive)

## CC(=O)NN(c1ccccc1)C1CCN(c2ccccc2)N1C(C)=O (stereo not given)
A549
  GI50: > 10 µM (inactive)
EKVX
  GI50: > 10 µM (inactive)
786-0
  GI50: > 10 µM (inactive)
OVCAR-4
  GI50: > 10 µM (inactive)
UACC-257
  GI50: > 10 µM (inactive)
IGROV-1
  GI50: > 10 µM (inactive)
HCT-15
  GI50: 0.881 µM
SK-OV-3
  GI50: > 10 µM (inactive)
SW-620
  GI50: 0.889 µM (active)
SK-MEL-28
  GI50: > 10 µM (inactive)
TK-10
  GI50: > 10 µM (inactive)
SF-268
  GI50: 5.07 µM (inactive)
ACHN
  GI50: 2.82 µM (inactive)
MOLT-4
  GI50: 4.74 µM (inactive)
RPMI-8226
  GI50: 8.71 µM (inactive)
SF-295
  GI50: 3.5 µM (inactive)
Hs-578T
  GI50: > 10 µM (inactive)
LOX IMVI
  GI50: 4.58 µM (inactive)
PC-3
  GI50: 4 µM (inactive)
DU-145
  GI50: > 10 µM (inactive)
RXF 393
  GI50: > 10 µM (inactive)
OVCAR-3
  GI50: > 10 µM (inactive)
NCI-H23
  GI50: > 10 µM (inactive)
COLO 205
  GI50: 3.13 µM (inactive)
CCRF-CEM
  GI50: > 10 µM (inactive)
SK-MEL-2
  GI50: > 10 µM (inactive)
SNB-19
  GI50: > 10 µM (inactive)
SN12C
  GI50: > 10 µM (inactive)
HCT-116
  GI50: 9.84 µM (inactive)
Malme-3M
  GI50: 3.48 µM (inactive)
NCI/ADR-RES
  GI50: 5.52 µM (inactive)
M14
  GI50: > 10 µM (inactive)
HOP-62
  GI50: > 10 µM (inactive)
HT-29
  GI50: 5.74 µM (inactive)
MDA-MB-231
  GI50: > 10 µM (inactive)
MDA-N
  GI50: 9.16 µM (inactive)
SNB-75
  GI50: > 10 µM (inactive)
NCI-H460
  GI50: > 10 µM (inactive)
HL-60
  GI50: 3.69 µM (inactive)
OVCAR-5
  GI50: > 10 µM (inactive)
K562
  GI50: 2.32 µM (inactive)
HCC 2998
  GI50: 3.82 µM (inactive)
NCI-H522
  GI50: 7.53 µM (inactive)
T47D
  GI50: > 10 µM (inactive)
CAKI-1
  GI50: 4.12 µM (inactive)
SR
  GI50: 6.25 µM (inactive)
SF-539
  GI50: 4.85 µM (inactive)
NCI-H226
  GI50: > 10 µM (inactive)
MCF7
  GI50: 8.91 µM (inactive)
OVCAR-8
  GI50: > 10 µM (inactive)
SK-MEL-5
  GI50: > 10 µM (inactive)
MDA-MB-435
  GI50: 3.18 µM (inactive)
UO-31
  GI50: 3.1 µM (inactive)
BT-549
  GI50: > 10 µM (inactive)
